Results as given in paper PMC7587962, “Evaluation of Cytotoxicity and α-Glucosidase Inhibitory Activity of Amide and Polyamino-Derivatives of Lupane Triterpenoids” (Molecules, 2020).
Like-named read-outs stand apart in the source and are kept apart here.

Tests used:
[1] = system: SW-620; assay: NCI-60 SRB screen: colon cancer SW-620; type: cell-based; details: Homo sapiens, 48 h, SW-620
[2] = system: BT-549; assay: NCI-60 SRB screen: breast cancer BT-549; type: cell-based, human; details: BT-549
[3] = system: MDA-MB-231/ATCC; assay: NCI-60 SRB screen: breast cancer MDA-MB-231/ATCC; type: cell-based; details: Homo sapiens, 48 h
[4] = system: OVCAR-3; assay: NCI-60 SRB screen: ovarian cancer OVCAR-3; type: cell-based, human; details: OVCAR-3
[5] = system: SK-MEL-5; assay: NCI-60 SRB screen: melanoma SK-MEL-5; type: cell-based, human; details: SK-MEL-5
[6] = system: SK-OV-3; assay: NCI-60 SRB screen: ovarian cancer SK-OV-3; type: cell-based, human; details: SK-OV-3
[7] = system: SK-MEL-28; assay: NCI-60 SRB screen: melanoma SK-MEL-28; type: cell-based, human; details: SK-MEL-28
[8] = system: UACC-62; assay: NCI-60 SRB screen: melanoma UACC-62; type: cell-based, human; details: UACC-62
[9] = system: NCI-H226; assay: NCI-60 SRB screen: non-small cell lung cancer NCI-H226; type: cell-based, human; details: NCI-H226
[10] = system: U251; assay: NCI-60 SRB screen: CNS cancer U251; type: cell-based; details: Homo sapiens, U251
[11] = system: T-47D; assay: NCI-60 SRB screen: breast cancer T-47D; type: cell-based, human; details: T-47D
[12] = system: SR; assay: NCI-60 SRB screen: leukemia SR; type: cell-based; details: Homo sapiens, 48 h
[13] = system: NCI/ADR-RES; assay: NCI-60 SRB screen: ovarian cancer NCI/ADR-RES; type: cell-based, human
[14] = system: HCT-116; assay: NCI-60 SRB screen: colon cancer HCT-116; type: cell-based; details: Homo sapiens, 48 h, HCT-116
[15] = system: 786-0; assay: NCI-60 SRB screen: renal cancer 786-0; type: cell-based, human; details: 786-0
[16] = system: CAKI-1; assay: NCI-60 SRB screen: renal cancer CAKI-1; type: cell-based, human; details: CAKI-1
[17] = system: Colon Cancer subpanel; assay: NCI-60 screen, subpanel Colon Cancer
[18] = system: MALME-3M; assay: NCI-60 SRB screen: melanoma MALME-3M; type: cell-based, human; details: MALME-3M
[19] = system: Ovarian Cancer subpanel; assay: NCI-60 screen, subpanel Ovarian Cancer
[20] = system: SK-MEL-2; assay: NCI-60 SRB screen: melanoma SK-MEL-2; type: cell-based, human; details: SK-MEL-2
[21] = system: 60 human tumor cell lines; assay: cells
[22] = system: HOP-62; assay: NCI-60 SRB screen: non-small cell lung cancer HOP-62; type: cell-based, human; details: HOP-62
[23] = system: HCT-15; assay: NCI-60 SRB screen: colon cancer HCT-15; type: cell-based, human; details: HCT-15
[24] = system: SNB-75; assay: NCI-60 SRB screen: CNS cancer SNB-75; type: cell-based, human; details: SNB-75
[25] = system: OVCAR-8; assay: NCI-60 SRB screen: ovarian cancer OVCAR-8; type: cell-based, human; details: OVCAR-8
[26] = system: COLO 205; assay: NCI-60 SRB screen: colon cancer COLO 205; type: cell-based, human; details: COLO 205
[27] = system: HS 578T; assay: NCI-60 SRB screen: breast cancer HS 578T; type: cell-based, human; details: HS 578T
[28] = system: Prostate cancer subpanel; assay: NCI-60 screen, subpanel Prostate cancer
[29] = system: LOX IMVI; assay: NCI-60 SRB screen: melanoma LOX IMVI; type: cell-based, human
[30] = system: SF-268; assay: NCI-60 SRB screen: CNS cancer SF-268; type: cell-based, human; details: SF-268
[31] = system: Breast cancer subpanel; assay: NCI-60 screen, subpanel Breast cancer
[32] = system: MCF7; assay: NCI-60 SRB screen: breast cancer MCF7; type: cell-based; details: Homo sapiens, 48 h, MCF7
[33] = system: CNS cancer subpanel; assay: NCI-60 screen, subpanel CNS cancer
[34] = system: TK-10; assay: NCI-60 SRB screen: renal cancer TK-10; type: cell-based, human; details: TK-10
[35] = single dose 10 µM, read-out: Percentage Cell Growth
[36] = five concentrations, SRB, read-out: GI50
[37] = Homo sapiens, five concentrations, 48 h, SRB, read-out: GI50

C=C(C)[C@@H]1CC[C@]2(C(=O)NCCNCCNCCN)CC[C@]3(C)[C@H](CC[C@@H]4[C@@]5(C)CC[C@H](O)C(C)(C)[C@@H]5CC[C@]43C)[C@@H]12 [Compound 6]
activity at 10 µM [1, 35]: -86.7% | GI50 [1, 36]: 14.7 µM | Percentage Cell Growth ([2]; single dose 10 µM): −51.94% | GI50 [2, 37]: 15 µM | activity at 10 µM ([3]; MDA-MB-231/ATCC, single dose 10 µM, read-out: Percentage Cell Growth): -56.9% | GI50 ([3]; MDA-MB-231, MDA-MB-31/ATCC, five concentrations, SRB, read-out: GI50): 15.1 µM | GI50 [4, 37]: 12.2 µM | Percentage Cell Growth ([4]; single dose 10 µM): −66.02% | GI50 [5, 37]: 11.1 µM | Percentage Cell Growth ([5]; single dose 10 µM): −90.10% | GI50 [6, 37]: 17.5 µM | Percentage Cell Growth ([6]; single dose 10 µM): −14.17% | GI50 [7, 37]: 16 µM | Percentage Cell Growth ([7]; single dose 10 µM): −98.68% | GI50 [8, 37]: 9.29 µM | Percentage Cell Growth ([8]; single dose 10 µM): −100.00% | GI50 [9, 37]: 15.5 µM | Percentage Cell Growth ([9]; single dose 10 µM): −23.56% | activity at 10 µM ([10]; U-251, 48 h, single dose 10 µM, read-out: Percentage Cell Growth): -71.7% | GI50 ([10]; U-251, five concentrations, 48 h, SRB, read-out: GI50): 12.7 µM | GI50 ([11]; Homo sapiens, T47D, five concentrations, 48 h, SRB, read-out: GI50): 10.9 µM | Percentage Cell Growth ([11]; single dose 10 µM): −32.56% | activity at 10 µM [12, 35]: -4.72% | GI50 [12, 36]: 6.76 µM | GI50 [13, 37]: 18.9 µM | Percentage Cell Growth ([13]; single dose 10 µM): −13.05% | activity at 10 µM [14, 35]: -26.5% | GI50 [14, 36]: 4.4 µM | Percentage Cell Growth ([15]; single dose 10 µM): −83.51% | GI50 [15, 37]: 12.4 µM | Percentage Cell Growth ([16]; single dose 10 µM): −93.59% | GI50 [16, 37]: 5.92 µM | MID b, average sensitivity of all cell line of particular subpanel [17]: 11.72 µM | Selectivity, ratio MID a: MID b [17]: 1.04 | GI50 [18, 37]: 14.6 µM | Percentage Cell Growth ([18]; single dose 10 µM): −100.00% | MID b, average sensitivity of all cell line of particular subpanel [19]: 14.10 µM | Selectivity, ratio MID a: MID b [19]: 0.86 | GI50 [20, 37]: 16.8 µM | Percentage Cell Growth ([20]; single dose 10 µM): −65.39% | GI50 ([21]; read-out: GI50 ranges against all panels of NCI60): 2.95 to 20.1 µM | GI50 ([21]; read-out: MID a, average sensitivity of all cell line (GI50-MID)): 12.2 µM | Percentage Cell Growth ([22]; single dose 10 µM): −69.12% | GI50 [22, 37]: 16.5 µM | Percentage Cell Growth ([23]; single dose 10 µM): −24.81% | GI50 [23, 37]: 11.5 µM | GI50 [24, 37]: 11.1 µM | Percentage Cell Growth ([24]; single dose 10 µM): −79.32% | GI50 [25, 37]: 18.8 µM | Percentage Cell Growth ([25]; single dose 10 µM): −12.90% | Percentage Cell Growth ([26]; single dose 10 µM): −19.47% | GI50 [26, 37]: 15.9 µM | Percentage Cell Growth ([27]; single dose 10 µM): −23.26% | GI50 [27, 37]: 20.1 µM | MID b, average sensitivity of all cell line of particular subpanel [28]: 8.53 µM | Selectivity, ratio MID a: MID b [28]: 1.42 | GI50 [29, 37]: 14.9 µM | Percentage Cell Growth ([29]; single dose 10 µM): −41.03% | GI50 [30, 37]: 13.5 µM | Percentage Cell Growth ([30]; single dose 10 µM): −30.99% | MID b, average sensitivity of all cell line of particular subpanel [31]: 13.86 µM | Selectivity, ratio MID a: MID b [31]: 0.88 | activity at 10 µM [32, 35]: -60.5% | GI50 [32, 36]: 13.2 µM | MID b, average sensitivity of all cell line of particular subpanel [33]: 12.52 µM | Selectivity, ratio MID a: MID b [33]: 0.97 | GI50 [34, 37]: 15.8 µM | Percentage Cell Growth ([34]; single dose 10 µM): −67.30%
